Laboratory results reported in patent US10287337B2 (priority 2015, dated 2019).
Values joined by “and” are separate entries in the source; they are usually repeats but may differ in a detail not shown here. Equal values may be shown once. No end group written: not given here.

Columns and labels:
[1] = molecular target: T1, human calcitonin CGRP1 (CGRP1) membrane (Homo sapiens, UniProt O60894+Q16602); format: binding; conditions: for Hill slope: 0.24 nM [125I]-CGRP, Mean±SD; for binding affinity on CGRP receptors (in words): comparison between peptides
T1 construct: purchased Perkin Elmer (Waltham, Mass.)
Description: CGRP1 membrane was homogenized in the assay buffer (50 mM Tris-HCl pH 7.4, 5 mM MgCl2, 0.5% BSA, 0.05% Tween20). […] After 1 h of incubation, at room temperature, samples were filtered, using a Tomtec cell harvester, through glass fiber filters that had been presoaked in 0.05% polyethyleneimine and washed with the cold Tris buffer (50 mM Tris-HCl pH7.4). Filters were counted on a betaplate reader (Wallac).

[2] = system: spared nerve injury-induced neuropathic pain in rats; test: Spared nerve injury (SNI)-induced neuropathic pain model, thermal and mechanical pain thresholds; format: in vivo, rat; conditions: rat, in vivo
Description: Of the three branches of the sciatic nerve the tibial and common peroneal nerves were cut and ligated leaving the sural nerve intact. Pre-surgery baselines (BL, 100%) of the thermal and mechanical pain thresholds of the ipsilateral hindpaws were measured using the Hargreaves thermal stimulator (6.0 A with a surface temperature of 30° C.; Hargreaves et al., 1988) and von Frey hair monofilaments (up-down method, Chaplan et al., 1994). […] All drug testing was conducted with this post-SNI period.
The rat recovered from anesthesia within a few minutes and the thermal and mechanical pain thresholds were determined at 0.5, 1, 2, 3, 4, 5 and 6 hour after the treatment using the methods described above.
Using the same test protocol in a different cohort of SNI rats, novel AFA-peptide 3 (0.1, 1 and 3 μM, each 50 μL) or the vehicle (50 μL) was injected into the ipsilateral hindpaws under a brief and light anesthesia condition (with 2.5% isoflurane). The thermal and mechanical pain thresholds were determined at 0.5, 1, 2, 3, 4, 5 and 6 hour after the treatment. […]

[3] = system: normal physiological pain sensation in normal rats; test: Normal rats cheek withdrawal latency to noxious heat; conditions: rat, in vivo
Description: Ideal therapeutics of anti-inflammatory pain or anti-hypersensitivity (occurred in neuropathic pain) should not interfere with normal physiological pain sensations. […] After removing the patches, cheek withdrawal latencies (mean±SEM) were assessed using continuous and noxious heat at different time points within the initial 3 hours test period.

[4] = system: UVB radiation-induced inflammatory pain in rat cheek; format: in vivo; conditions: rat, in vivo
Description: Ultraviolet B (UVB) radiation causes cutaneous inflammation in humans and animals. One important clinical consequence of UVB-induced inflammation is causing hyperalgesia. Changes in thermal sensitivities in the area of primary UVB irradiation are well documented both in humans and in the animal models (Zhang et al., 2009). […] This model provides an experimental model of post radiation pain and can mimic one type of burn pain. To determine the magnitude of anti-inflammatory pain effects for a given drug transdermally delivered by way of microneedle delivery, the depilated rat's cheeks were exposed to an inflammatory dosage of Ultraviolet B radiation (Zhang et al., 2009).
With the skin of a rat's cheek was stretched, the circular (8 mm in diameter) fiberglass applicator of the UV Curing Device (Dymax Bluewave 200) was applied to the center of the rat's cheek. To produce an appropriate inflammation, a total dose of 1200 mJ/cm^2 UVB was administered to one rat cheek for 25 seconds. The same procedure was performed on the rat's contralateral cheek. Upon completion of UVB irradiation, all rats were returned to their home cages and were assessed for thermal pain between 24-48 hours later. […] The rats were lightly anesthetized with urethane (800 mg/kg, IP) and heat-induced withdrawal latencies of the cheeks (an indicator of C fiber stimulation responses) were measured. […] A sham control group (n=6) were only completely depilated and cleansed with ethanol wipes but without UVB challenge.
After removing patches, cheek withdrawal latencies induced by continuous and noxious heat were assessed at different time points from the end of the 20 minute treatment period up to 3 hours post treatment.
The patches were applied on the rat cheek for 20 minutes. After removing the patches, cheek withdrawal latencies induced by continuous and noxious heat were assessed at different time points up to 3 hours as described above.
(§1) After removing the patches, cheek withdrawal latencies induced by continuous and noxious heat were assessed at different time points up to 3 hours.
Accordingly, anti-inflammatory effects were examined 48 hours post-UVB and after the application of the patch. Twelve rats were subjected to UVB radiation (1200 mJ/cm^2). […] The patch was placed over the inflamed area for a period of 20 minutes. […] Sham control group rats (n=6) were completely depilated and cleansed with ethanol wipes but without any other treatment. The rats were returned to their home cages, and assessed for thermal pain responses 48 hours later. As usual, cheek withdrawal latencies in response to continuous and noxious heat were recorded over a 3-hour time period (hours 49-51 post-UVB).
as §1
After removing the patches, cheek withdrawal latencies induced by continuous and noxious heat were assessed at different time points from 20 minutes post administration up to 3 hours.
Because UVB-irradiation may increase skin permeability, a topical formulation, but not limited to the sample shown here, was made.

[5] = system: paw incision-induced postoperative pain in rats; test: Paw incision-induced postoperative pain model, mechanical pain threshold; format: in vivo, rat; conditions: rat, in vivo
Description: A clinically applicable incision model in rodents is a hind-paw deep incision that produces a robust mechanical and cold allodynia, and thermal hyperalgesia (Pogatzki et al., 2003; Xu and Brennan, 2010). Male rats (Sprague-Dawley, 250-260 g, Harlan) used (n=8/group) were anesthetized with 2.5% isoflurane and the skin of the dorsolateral hindpaw surface were prepped by first depilitating it (using Nair), followed by rinsing and application of povidone-iodine. Afterwards, a 5 mm longitudinal incision was made near the hairy/glabrous border though the skin and subcutaneous fascia of the left hindpaw as described by (Pogatzki et al., 2003; Xu and Brennan, 2010). After briefly elevating the underlying muscle with curved forceps the wound is closed with a single nylon (8-0) mattress stitch.
Pre-surgery (baseline) and 24 hours after the surgery, the mechanical allodynia of the incision hindpaws of the rats were assessed using von Frey monofilaments with an up/down procedure (Chaplan et al., 1994). […] Mechanical pain thresholds were measured at 0.5, 1, 2, 3, 4, 5 and 6 hours post-intradermal injection.

[6] = system: STZ-induced diabetic pain in rats; test: Streptozotocin (STZ)-induced diabetic neuropathic pain model; conditions: rat, in vivo
Description: Painful peripheral neuropathy is a common secondary complication of diabetes mellitus. Streptozotocin (STZ)-induced diabetic polyneuropathy causes more broad pain and has neurogenic inflammation component in rodents (Bishnoi et al., 2011). Prior to STZ administration, each rat's baseline of thermal and mechanical thresholds on their individual hindpaws were assessed using the Hargreaves thermal pain test, and von Frey mechanical pain test, respectively.
After removing the patches, hindpaw withdrawal latencies induced by continuous and noxious heat (Hargreaves) were assessed at 1 hour post-microneedle application.

[7] = system: electrocutaneous stimulation-induced facial pain in rats; test: Electrocutaneous stimulation-induced facial inflammatory pain model; format: in vivo, rat; conditions: rat, in vivo
Description: In humans electrocutaneous stimulation elicited vasodilatation in the cheek (Vassend and Knardahl, 2005). […] Baseline facial thermal thresholds of rats (Sprague-Dawley, male, 260-300 g) were assessed on the rats' depilated left cheek and then each rat received 1 hour of electrocutaneous facial stimulation using WPI ISOSTIM™ A320 (World Precision Instruments, 0.4 mA intensity, 10 ms duration, Is inter-pulse interval). 24 hr after stimulation (Day 1), each rat's thermal pain threshold mediated by A-delta fiber and C fiber were separately measured using a thermal nociception lamp (variable voltage regulator model: No. SC-3M) to evoke A-delta and C nerve fiber-mediated cheek withdrawal. […] Thermal thresholds were measured once every 0.5 hour for the first 3 hours post-I.N. dosing, and then 4, 5, and 6 hour post-I.N. dosing. Voltage regulator set to 90V for A-delta fiber testing and 45V for C fiber testing. Cutoff set at 6 seconds and 20 seconds for A-delta fiber and C fiber testing, respectively.

[8] = system: UVB radiation-induced inflammatory pain in rat cheek; format: in vivo; conditions: rat, in vivo; remark: listed apart in the source

T1 sequence (O60894 27-148): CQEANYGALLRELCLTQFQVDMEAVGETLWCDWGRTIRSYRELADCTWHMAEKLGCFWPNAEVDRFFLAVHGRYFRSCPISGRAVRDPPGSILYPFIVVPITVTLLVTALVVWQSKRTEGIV
T1 sequence (Q16602 23-461): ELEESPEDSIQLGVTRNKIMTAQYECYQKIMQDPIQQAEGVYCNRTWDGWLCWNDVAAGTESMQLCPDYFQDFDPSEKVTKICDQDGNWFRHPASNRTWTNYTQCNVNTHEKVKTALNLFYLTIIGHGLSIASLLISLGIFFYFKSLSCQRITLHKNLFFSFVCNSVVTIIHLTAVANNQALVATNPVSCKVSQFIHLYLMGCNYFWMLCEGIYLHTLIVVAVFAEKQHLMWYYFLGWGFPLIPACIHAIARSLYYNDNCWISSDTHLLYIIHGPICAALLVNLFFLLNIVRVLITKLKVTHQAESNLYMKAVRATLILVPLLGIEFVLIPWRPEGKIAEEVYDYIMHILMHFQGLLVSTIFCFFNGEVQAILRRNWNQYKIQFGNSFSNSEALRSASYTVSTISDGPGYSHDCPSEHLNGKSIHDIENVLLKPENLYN

## H-NFAPTNVGPFAF-NH2 [AFA- peptide 10, NH2-N-F-A-P-T-N-V-G-P-F-A-F-CONH2]
[1]
  Hill slope: 1.07 ± 0.01
  binding affinity on CGRP receptors (in words): higher affinities than conventional CGRP 27-37 and CGRP 8-37

## H-NFIPTNVGPFAF-NH2 [AFA- peptide 6, NH2-N-F-I-P-T-N-V-G-P-F-A-F-CONH2]
[1]
  Hill slope: 1.13 ± 0.13

## H-NFLPTNVGPFAF-NH2 [AFA- peptide 7, NH2-N-F-L-P-T-N-V-G-P-F-A-F-CONH2]
[1]
  Hill slope: 1.03 ± 0.15
  binding affinity on CGRP receptors (in words): higher affinities than conventional CGRP 27-37 and CGRP 8-37

## H-NLVPTNVGPFAF-NH2 [AFA- peptide 8, NH2-N-L-V-P-T-N-V-G-P-F-A-F-CONH2]
[1]
  Hill slope: 0.88 ± 0.18

## NCC1(CC(=O)O)CCCCC1 [Gabapentin, gabapentin]
[2]
  duration of thermal antihyperalgesic effect: 3 h
  effect on thermal threshold (in words): significant antihyperalgesic effect
  time of full reversal / peak antihyperalgesic effect after application: 1 h

## H-NFFPTNVGPFAF-NH2 [AFA- peptide 9, NH2-N-F-F-P-T-N-V-G-P-F-A-F-CONH2]
[1]
  Hill slope: 1.07 ± 0.05
  binding affinity on CGRP receptors (in words): higher affinities than conventional CGRP 27-37 and CGRP 8-37

## YVPTAVGPFAF-NH2 [CGRP 27-37]
[1]
  Hill slope: 1.62 ± 0.25

## CCN(CC)CC(=O)Nc1c(C)cccc1C [Lidocaine, lidocaine]
[2]
  thermal and mechanical pain thresholds (in words): produced positive control
[3]
  analgesic effect on normal nociceptive pain (in words): produced analgesic effect on normal nociceptive pain

## CSCC[C@H](NC(=O)CNC(=O)CNC(=O)[C@H](CO)NC(=O)[C@H](CCCNC(=N)N)NC(=O)[C@H](CO)NC(=O)[C@H](CC(C)C)NC(=O)[C@H](CC(C)C)NC(=O)CNC(=O)[C@H](C)NC(=O)[C@H](CC(C)C)NC(=O)[C@H](CCCNC(=N)N)NC(=O)[C@H](Cc1c[nH]cn1)NC(=O)[C@@H](NC(=O)[C@@H](N)C(C)C)[C@@H](C)O)C(=O)N[C@H](C(=O)N[C@@H](CCCCN)C(=O)N[C@@H](CO)C(=O)N[C@@H](CC(N)=O)C(=O)N[C@@H](Cc1ccccc1)C(=O)N[C@H](C(=O)N1CCC[C@H]1C(=O)N[C@H](C(=O)N[C@@H](CC(N)=O)C(=O)N[C@H](C(=O)NCC(=O)N[C@@H](CO)C(=O)N[C@@H](CCCCN)C(=O)N[C@@H](C)C(=O)N[C@@H](Cc1ccccc1)C(N)=O)C(C)C)[C@@H](C)O)C(C)C)C(C)C [CGRP 8-37]
[2]
  duration of anti-allodynic effect: up to 6 hours
  duration of thermal antihyperalgesic effect: up to 5 hours
  effect on thermal threshold (in words): full reversal to baseline thermal threshold values
  return toward baseline mechanical sensitivity: ~25%
  thermal and mechanical pain thresholds (in words): reduced SNI-induced neuropathic pain
  time of full reversal / peak antihyperalgesic effect after application: around 1 hour
  time of maximal anti-allodynic effect post-microneedle application: 3 h
[4]
  Average Reduced Latency for Inflammation, Mean: 9.9 s and 10.5 s and 11.2 s and 11.0 s and 12.2 s and 8.0 s and 9.1 s
  C-fiber-mediated thermal pain thresholds vs vehicle (in words): significant and substantial increase
  duration of action: 2 h
[5]
  mechanical pain thresholds vs vehicle (in words): significantly increased mechanical pain thresholds
  onset of analgesic effect post treatment: 1 h
[6]
  return to mechanical pain baseline values: 35%
  thermal threshold (in words): full return to their baseline thermal thresholds
[7]
  A-delta fiber-mediated pain withdrawal latencies vs vehicle (in words): insignificant analgesic effects
  C-fiber-mediated pain withdrawal latencies vs vehicle (in words): even more substantial and significantly prolonged
  thermal pain thresholds in naïve, non-facial stimulation rats (in words): did not alter thermal pain thresholds
[8]
  A-delta-fiber-mediated responses (in words): little effects
[3]
  Normal Rats Average Pain Response Latency, Mean: 10.3 s and 11.0 s and 11.2 s and 10.6 s and 10.5 s and 9.6 s and 10.1 s and 10.2 s
  analgesic effect on normal nociceptive pain (in words): did not produce any measurable analgesic effect
